Where two headings read alike, the source gives them in different places.
Legend:
[1] = target: Lck (h) (Homo sapiens, UniProt P06239); assay: Lck Human  Kinase Enzymatic Radiometric Assay; format: biochemical
Method in brief: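 Substrate 33P-incorporation measured by scintillation counting after spotting on P30 filtermat and phosphoric acid washes. Human Lck reacted 40 min at RT in 50 mM Tris pH 7.5 with 10 mM MgAcetate, [gamma-33P]-ATP, 250 uM Cdc2 peptide, 0.1 mM EGTA and 0.1 mM Na3VO4.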

[2] = target: T1, Recombinant (1-346) HPK1 (h) (Homo sapiens, UniProt Q92918); assay: HPK1 Human STE Kinase Enzymatic Radiometric Assay; format: biochemical
T1 construct: Recombinant (1-346) HPK1 (h) is incubated with 8 mM MOPS pH 7.0
T1 sequence (Q92918 1-346): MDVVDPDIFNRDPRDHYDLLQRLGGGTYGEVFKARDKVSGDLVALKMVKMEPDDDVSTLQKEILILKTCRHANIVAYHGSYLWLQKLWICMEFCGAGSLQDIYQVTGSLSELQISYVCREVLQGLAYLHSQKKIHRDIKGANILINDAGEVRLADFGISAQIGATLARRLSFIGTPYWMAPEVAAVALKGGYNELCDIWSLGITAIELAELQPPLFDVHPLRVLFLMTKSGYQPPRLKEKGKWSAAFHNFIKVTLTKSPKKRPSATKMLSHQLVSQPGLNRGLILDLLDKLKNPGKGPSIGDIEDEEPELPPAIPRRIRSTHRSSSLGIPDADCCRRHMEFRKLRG
Description: A stock solution of 10 mM of test compound is prepared in DMSO. The compound plate was prepared by 3-fold and 9-point serial dilutions. […] The reaction is initiated by The addition of the Mg/ATP mix. After incubation for 40 minutes at RT, the reaction is stopped by the addition of phosphoric acid to a concentration of 0.5%.

Chain of Lck (h) (P06239 whole entry): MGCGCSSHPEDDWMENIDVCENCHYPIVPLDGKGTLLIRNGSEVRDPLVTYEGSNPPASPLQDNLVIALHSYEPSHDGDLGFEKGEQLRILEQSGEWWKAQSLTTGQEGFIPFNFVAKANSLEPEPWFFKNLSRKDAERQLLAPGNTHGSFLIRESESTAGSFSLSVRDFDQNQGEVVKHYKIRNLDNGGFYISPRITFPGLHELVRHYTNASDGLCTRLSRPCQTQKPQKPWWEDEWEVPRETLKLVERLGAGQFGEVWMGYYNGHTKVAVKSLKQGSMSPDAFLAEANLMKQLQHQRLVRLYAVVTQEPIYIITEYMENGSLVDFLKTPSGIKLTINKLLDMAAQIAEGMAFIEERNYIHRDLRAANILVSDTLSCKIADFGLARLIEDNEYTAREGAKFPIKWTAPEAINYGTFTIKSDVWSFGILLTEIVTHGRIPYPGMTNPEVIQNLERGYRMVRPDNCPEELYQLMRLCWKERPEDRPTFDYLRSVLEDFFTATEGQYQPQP

Structure (SMILES) | IC50 ([1]; read-out: Lck IC50 nM Range*) [nM] | IC50 ([2]; read-out: HPK1 IC50 nM Range*) [nM] | IC50 [1] [nM] | IC50 [2] [nM]
CN(CC(F)(F)F)C1CCN(c2ccc(-c3cc(-c4ccc5c(c4)CCNC5=O)c(N)nc3F)cc2)C1 (stereo not shown) [I-159, 6-(2-amino-6-fluoro-5-(4-(3-(methyl(2,2,2-trifluoroethyl)amino)pyrrolidin-1-yl)phenyl)pyridin-3-yl)-3,4-dihydroisoquinolin-1(2H)-one] | > 1000 | 0.1 to 10 | – | –
COCCN(C)[C@@H]1CCN(c2ccc(-c3cc(-c4ccc5c(c4)CCNC5=O)c(N)nc3F)cc2)C1 [I-160, (R)-6-(2-amino-6-fluoro-5-(4-(3-((2-methoxyethyl)(methyl)amino)pyrrolidin-1-yl)phenyl)pyridin-3-yl)-3,4-dihydroisoquinolin-1(2H)-one] | > 1000 | 0.1 to 10 | – | –
CN(CC1CC1)[C@@H]1CCN(c2ccc(-c3cc(-c4ccc5c(c4)CCNC5=O)c(N)nc3F)cc2)C1 [I-161, (R)-6-(2-amino-5-(4-(3-((cyclopropylmethyl)(methyl)amino)pyrrolidin-1-yl)phenyl)-6-fluoropyridin-3-yl)-3,4-dihydroisoquinolin-1(2H)-one] | 101 to 1000 | 0.1 to 10 | – | –
CC(C)CN(C)C1CCN(c2ccc(-c3cc(-c4ccc5c(c4)CCNC5=O)c(N)nc3F)cc2)C1 (stereo not shown) [I-162, 6-(2-amino-6-fluoro-5-(4-(3-(isobutyl(methyl)amino)pyrrolidin-1-yl)phenyl)pyridin-3-yl)-3,4-dihydroisoquinolin-1(2H)-one] | > 1000 | 0.1 to 10 | – | –
Nc1nc(F)c(-c2ccc(N3CCC(F)CC3)cc2)cc1-c1ccc2c(c1)CCNC2=O [I-163, 6-(2-amino-6-fluoro-5-(4-(4-fluoropiperidin-1-yl)phenyl)pyridin-3-yl)-3,4-dihydroisoquinolin-1(2H)-one] | > 1000 | 0.1 to 10 | – | –
CC(C)N1CCC(C)(c2ccc(-c3cc(-c4ccc5c(c4)CCNC5=O)c(N)nc3F)cc2)C1 (stereo not shown) [I-164, 6-(2-amino-6-fluoro-5-(4-(1-isopropyl-3-methylpyrrolidin-3-yl)phenyl)pyridin-3-yl)-3,4-dihydroisoquinolin-1(2H)-one] | > 1000 | 0.1 to 10 | – | –
COCCN1C[C@@H]2C[C@]2(c2ccc(-c3cc(-c4ccc5c(c4)CCNC5=O)c(N)nc3F)cc2)C1 [I-165, 6-(2-amino-6-fluoro-5-(4-((1S,5R)-3-(2-methoxyethyl)-3-azabicyclo[3.1.0]hexan-1-yl)phenyl)pyridin-3-yl)-3,4-dihydroisoquinolin-1(2H)-one] | > 1000 | 0.1 to 10 | – | –
COCCN1CCC(c2ccc(-c3cc(-c4ccc5c(c4)CCNC5=O)c(N)nc3Cl)cc2)CC1 [I-166, 6-(2-amino-6-chloro-5-(4-(1-(2-methoxyethyl)piperidin-4-yl)phenyl)pyridin-3-yl)-3,4-dihydroisoquinolin-1(2H)-one] | > 1000 | 11 to 100 | – | –
COCCN1CCC(O)(c2ccc(-c3cc(-c4ccc5c(c4)CCNC5=O)c(N)nc3F)cc2)CC1 [I-167, 6-(2-amino-6-fluoro-5-(4-(4-hydroxy-1-(2-methoxyethyl)piperidin-4-yl)phenyl)pyridin-3-yl)-3,4-dihydroisoquinolin-1(2H)-one] | > 1000 | 0.1 to 10 | – | –
Nc1nc(Cl)c(-c2ccc(N3CCN(CC(F)F)CC3)cc2)cc1-c1ccc2c(c1)CCNC2=O [I-168, 6-(2-amino-6-chloro-5-(4-(4-(2,2-difluoroethyl)piperazin-1-yl)phenyl)pyridin-3-yl)-3,4-dihydroisoquinolin-1(2H)-one] | > 1000 | 11 to 100 | – | –
CC(C)N1CCN(c2ccc(-c3cc(-c4ccc5c(c4)CCNC5=O)c(N)nc3Cl)cc2)CC1 [I-169, 6-(2-amino-6-chloro-5-(4-(4-isopropylpiperazin-1-yl)phenyl)pyridin-3-yl)-3,4-dihydroisoquinolin-1(2H)-one] | > 1000 | 11 to 100 | – | –
CC(C)N1CCN(c2ccc(-c3cc(-c4cc5c(cc4F)C(=O)NCC5)c(N)nc3F)nc2)CC1 [I-170, 6-(6′-amino-2′-fluoro-5-(4-isopropylpiperazin-1-yl)-[2,3′-bipyridin]-5′-yl)-7-fluoro-3,4-dihydroisoquinolin-1(2H)-one] | > 1000 | 0.1 to 10 | – | –
CC(C)N1CC2C(F)(F)C2(c2ccc(-c3cc(-c4ccc5c(c4)CCNC5=O)c(N)nc3F)cc2)C1 (stereo not shown) [I-171, 6-(2-amino-5-(4-(6,6-difluoro-3-isopropyl-3-azabicyclo[3.1.0]hexan-1-yl)phenyl)-6-fluoropyridin-3-yl)-3,4-dihydroisoquinolin-1(2H)-one] | > 1000 | 0.1 to 10 | – | –
Nc1nc(F)c(-c2ccc(N3CCNCC3)cc2)cc1-c1cc2c(cc1F)C(=O)NCC2 [I-172, 6-(2-amino-6-fluoro-5-(4-(piperazin-1-yl)phenyl)pyridin-3-yl)-7-fluoro-3,4-dihydroisoquinolin-1(2H)-one 2,2,2-trifluoroacetate] | > 1000 | 0.1 to 10 | – | –
CC(C)(C)OC(=O)N1CCC2(CC1)OCc1cc(-c3cc(-c4ccc5c(c4)CCNC5=O)c(N)nc3F)ccc1O2 [I-173, tert-butyl 6-(6-amino-2-fluoro-5-(1-oxo-1,2,3,4-tetrahydroisoquinolin-6-yl)pyridin-3-yl)-4H-spiro[benzo[d][1,3]dioxine-2,4′-piperidine]-1′-carboxylate] | – | – | > 1000 | 11 to 100
CC(C)(C)OC(=O)N1CCC2(CC1)CC(=O)c1cc(-c3cc(-c4ccc5c(c4)CCNC5=O)c(N)nc3F)ccc1O2 [I-174, tert-butyl 6-(6-amino-2-fluoro-5-(1-oxo-1,2,3,4-tetrahydroisoquinolin-6-yl)pyridin-3-yl)-4-oxospiro[chromane-2,4′-piperidine]-1′-carboxylate] | > 1000 | 11 to 100 | – | –
CC(C)(C)OC(=O)N1CCC2(CCc3cc(-c4cc(-c5ccc6c(c5)CCNC6=O)c(N)nc4F)ccc3O2)CC1 [I-175, tert-butyl 6-(6-amino-2-fluoro-5-(1-oxo-1,2,3,4-tetrahydroisoquinolin-6-yl)pyridin-3-yl)spiro[chromane-24′-piperidine]-1′-carboxylate] | > 1000 | 101 to 1000 | – | –
CC(C)(C)OC(=O)N1CCC(Oc2ccc(-c3cc(-c4ccc5c(c4)CCNC5=O)c(N)nc3F)cc2C#N)CC1 [I-176, tert-butyl 4-(4-(6-amino-2-fluoro-5-(1-oxo-1,2,3,4-tetrahydroisoquinolin-6-yl)pyridin-3-yl)-2-cyanophenoxy)piperidine-1-carboxylate] | > 1000 | 11 to 100 | – | –
CC(C)(C)OC(=O)N1CCN(c2ccc(-c3cc(-c4ccc5c(c4)CCNC5=O)c(N)nc3F)cc2C(F)(F)F)CC1 [I-177, tert-butyl 4-(4-(6-amino-2-fluoro-5-(1-oxo-1,2,3,4-tetrahydroisoquinolin-6-yl)pyridin-3-yl)-2-(trifluoromethyl)phenyl)piperazine-1-carboxylate] | > 1000 | 101 to 1000 | – | –
C[C@@H]1C[C@@H](Oc2ccc(-c3cc(-c4ccc5c(c4)CCNC5=O)c(N)nc3F)cc2)C[C@H](C)N1 [I-178, 6-(2-amino-5-(4-(((2S,4s,6R)-2,6-dimethylpiperidin-4-yl)oxy)phenyl)-6-fluoropyridin-3-yl)-3,4-dihydroisoquinolin-1(2H)-one] | > 1000 | 0.1 to 10 | – | –
Nc1nc(F)c(-c2ccc(OC3CCNCC3)c(F)c2)cc1-c1ccc2c(c1)CCNC2=O [I-179, 6-(2-amino-6-fluoro-5-(3-fluoro-4-(piperidin-4-yloxy)phenyl)pyridin-3-yl)-3,4-dihydroisoquinolin-1(2H)-one] | > 1000 | 0.1 to 10 | – | –
Nc1nc(F)c(-c2ccc(O[C@@H]3CCCNC3)cc2)cc1-c1cc2c(cc1F)C(=O)NCC2 [I-180, (R)-6-(2-amino-6-fluoro-5-(4-(piperidin-3-yloxy)phenyl)pyridin-3-yl)-7-fluoro-3,4-dihydroisoquinolin-1(2H)-one] | > 1000 | 11 to 100 | – | –
Nc1nc(F)c(-c2ccc3c(c2)COC2(CCNCC2)O3)cc1-c1ccc2c(c1)CCNC2=O [I-181, 6-(2-amino-6-fluoro-5-(4H-spiro[benzo[d][1,3]dioxine-2,4′-piperidin]-6-yl)pyridin-3-yl)-3,4-dihydroisoquinolin-1(2H)-one] | – | – | > 1000 | 0.1 to 10
Nc1nc(F)c(-c2ccc3c(c2)C(=O)CC2(CCNCC2)O3)cc1-c1ccc2c(c1)CCNC2=O [I-182, 6-(6-amino-2-fluoro-5-(1-oxo-1,2,3,4-tetrahydroisoquinolin-6-yl)pyridin-3-yl)spiro[chromane-2,4′-piperidin]-4-one 2,2,2-trifluoroacetate] | > 1000 | 0.1 to 10 | – | –
Nc1nc(F)c(-c2ccc3c(c2)CCC2(CCNCC2)O3)cc1-c1ccc2c(c1)CCNC2=O [I-183, 6-(2-amino-6-fluoro-5-(spiro[chromane-2,4′-piperidin]-6-yl)pyridin-3-yl)-3,4-dihydroisoquinolin-1(2H)-one] | > 1000 | 0.1 to 10 | – | –
N#Cc1cc(-c2cc(-c3ccc4c(c3)CCNC4=O)c(N)nc2F)ccc1OC1CCNCC1 [I-184, 5-(6-amino-2-fluoro-5-(1-oxo-1,2,3,4-tetrahydroisoquinolin-6-yl)pyridin-3-yl)-2-(piperidin-4-yloxy)benzonitrile] | > 1000 | 11 to 100 | – | –
